Data published in ChEMBL document CHEMBL1201862, “PubChem BioAssay data set” (2004).
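Protocol summary: plate cells (96-well), add compound at 5 concentrations, incubate 48 h, interpolate endpoints linearly. The concentration for 50% growth inhibition is given as GI50.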 Active and inactive are the calls of the source. Cut-off read from the data, not from the text of the source: active = GI50 up to about 1.1 µM and inactive = higher.

Legend:
Assay in all cases: NCI anticancer screen, dose series, 48 h
A498 = tested on: A498
ACHN = tested on: ACHN
BT-549 = tested on: BT-549
CAKI-1 = tested on: CAKI-1
DU-145 = tested on: DU-145
EKVX = tested on: EKVX
HT-29 = tested on: HT-29
IGROV-1 = tested on: IGROV-1
KM12 = tested on: KM12
MDA-MB-231 = tested on: MDA-MB-231
NCI-H226 = tested on: NCI-H226
NCI-H522 = tested on: NCI-H522
NCI/ADR-RES = tested on: NCI/ADR-RES
OVCAR-8 = tested on: OVCAR-8
RPMI-8226 = tested on: RPMI-8226
RXF 393 = tested on: RXF 393
SNB-75 = tested on: SNB-75
U-251 = tested on: U-251
UACC-257 = tested on: UACC-257
UACC-62 = tested on: UACC-62

O=C(O)c1cc(-c2ccc(-c3ccccc3)cc2)nc2cc3ccccc3cc12
GI50 (A498): > 100 µM (inactive)
GI50 (ACHN): 46.6 µM (inactive)
GI50 (BT-549): 35.9 µM (inactive)
GI50 (CAKI-1): 42 µM (inactive)
GI50 (DU-145): 66.8 µM (inactive)
GI50 (EKVX): 57.1 µM (inactive)
GI50 (HT-29): 38 µM (inactive)
GI50 (IGROV-1): 26.4 µM (inactive)
GI50 (KM12): 34.3 µM (inactive)
GI50 (MDA-MB-231): 21.2 µM (inactive)
GI50 (NCI-H226): 35.7 µM (inactive)
GI50 (NCI-H522): 27.7 µM (inactive)
GI50 (NCI/ADR-RES): 75.7 µM (inactive)
GI50 (OVCAR-8): 57.1 µM (inactive)
GI50 (RPMI-8226): 29.6 µM (inactive)
GI50 (RXF 393): 27.7 µM (inactive)
GI50 (SNB-75): 29.2 µM (inactive)
GI50 (U-251): 20.7 µM (inactive)
GI50 (UACC-257): > 100 µM (inactive)
GI50 (UACC-62): 25.5 µM (inactive)

Cc1ccsc1C(=S)Nc1ccc(Cl)c(/C=N/OC(C)C)c1
GI50 (A498): 64 µM (inactive)
GI50 (ACHN): 25.2 µM (inactive)
GI50 (BT-549): 67.9 µM (inactive)
GI50 (CAKI-1): 46.3 µM (inactive)
GI50 (DU-145): 92.5 µM (inactive)
GI50 (EKVX): 22.9 µM (inactive)
GI50 (HT-29): 27.5 µM (inactive)
GI50 (IGROV-1): 25.8 µM (inactive)
GI50 (KM12): 26.4 µM (inactive)
GI50 (MDA-MB-231): 41.2 µM (inactive)
GI50 (NCI-H226): 31.3 µM (inactive)
GI50 (NCI-H522): 28.3 µM (inactive)
GI50 (NCI/ADR-RES): 30 µM (inactive)
GI50 (OVCAR-8): 44.3 µM (inactive)
GI50 (RPMI-8226): 14.7 µM (inactive)
GI50 (RXF 393): 20.5 µM (inactive)
GI50 (SNB-75): 48.2 µM (inactive)
GI50 (U-251): 36.6 µM (inactive)
GI50 (UACC-257): 47.9 µM (inactive)
GI50 (UACC-62): 64.1 µM (inactive)

Oc1c(Br)cc(Br)cc1CN(Cc1cc(Br)cc(Br)c1O)C1CCCCC1
GI50 (A498): 26.7 µM (inactive)
GI50 (ACHN): 31.1 µM (inactive)
GI50 (BT-549): 33.1 µM (inactive)
GI50 (CAKI-1): 34.9 µM (inactive)
GI50 (DU-145): 38 µM (inactive)
GI50 (EKVX): 30.5 µM (inactive)
GI50 (HT-29): 23.7 µM (inactive)
GI50 (IGROV-1): 34.1 µM (inactive)
GI50 (KM12): 31.9 µM (inactive)
GI50 (MDA-MB-231): 26.4 µM (inactive)
GI50 (NCI-H226): 59.4 µM (inactive)
GI50 (NCI-H522): 15.3 µM (inactive)
GI50 (NCI/ADR-RES): 39.9 µM (inactive)
GI50 (OVCAR-8): 31.1 µM (inactive)
GI50 (RPMI-8226): 30.2 µM (inactive)
GI50 (RXF 393): 31.3 µM (inactive)
GI50 (SNB-75): 24.6 µM (inactive)
GI50 (U-251): 24.9 µM (inactive)
GI50 (UACC-257): 19.5 µM (inactive)
GI50 (UACC-62): 31.3 µM (inactive)

C=C(CN(C)C)C(=O)c1cc(C)ccc1C
GI50 (A498): 23.6 µM (inactive)
GI50 (ACHN): 3.54 µM (inactive)
GI50 (BT-549): 10.2 µM (inactive)
GI50 (CAKI-1): 4.39 µM (inactive)
GI50 (DU-145): 14.4 µM (inactive)
GI50 (EKVX): 26.2 µM (inactive)
GI50 (HT-29): 11 µM (inactive)
GI50 (IGROV-1): 18 µM (inactive)
GI50 (KM12): 18.6 µM (inactive)
GI50 (MDA-MB-231): 8.83 µM (inactive)
GI50 (NCI-H226): 13.2 µM (inactive)
GI50 (NCI-H522): 0.843 µM (active)
GI50 (NCI/ADR-RES): 18.3 µM (inactive)
GI50 (OVCAR-8): 20.7 µM (inactive)
GI50 (RPMI-8226): 1.42 µM (inactive)
GI50 (RXF 393): 2.61 µM (inactive)
GI50 (SNB-75): 17.2 µM (inactive)
GI50 (U-251): 15.7 µM (inactive)
GI50 (UACC-257): 7.96 µM (inactive)
GI50 (UACC-62): 10.5 µM (inactive)

CC1=NN(c2cccc(Cl)c2)C2(C1)SCC(=O)N2c1nc2ccccc2s1 (stereo not given)
GI50 (A498): 27.9 µM (inactive)
GI50 (ACHN): 26.8 µM (inactive)
GI50 (BT-549): 29.3 µM (inactive)
GI50 (CAKI-1): 32.6 µM (inactive)
GI50 (DU-145): 24.6 µM (inactive)
GI50 (EKVX): 29.7 µM (inactive)
GI50 (HT-29): 27.1 µM (inactive)
GI50 (IGROV-1): 21.9 µM (inactive)
GI50 (KM12): 25.5 µM (inactive)
GI50 (MDA-MB-231): 19.1 µM (inactive)
GI50 (NCI-H226): 11.6 µM (inactive)
GI50 (NCI-H522): 25.9 µM (inactive)
GI50 (NCI/ADR-RES): 32.1 µM (inactive)
GI50 (OVCAR-8): 35.6 µM (inactive)
GI50 (RPMI-8226): 16.3 µM (inactive)
GI50 (RXF 393): 17.7 µM (inactive)
GI50 (SNB-75): 13.2 µM (inactive)
GI50 (U-251): 27 µM (inactive)
GI50 (UACC-257): 22.4 µM (inactive)
GI50 (UACC-62): 29.5 µM (inactive)

CCN(CCCN(CC)C(=O)Nc1c(C)cccc1C)C(=O)Nc1c(C)cccc1C
GI50 (A498): > 100 µM (inactive)
GI50 (ACHN): > 100 µM (inactive)
GI50 (BT-549): > 100 µM (inactive)
GI50 (CAKI-1): > 100 µM (inactive)
GI50 (DU-145): > 100 µM (inactive)
GI50 (EKVX): > 100 µM (inactive)
GI50 (HT-29): > 100 µM (inactive)
GI50 (IGROV-1): > 100 µM (inactive)
GI50 (KM12): > 100 µM (inactive)
GI50 (MDA-MB-231): > 100 µM (inactive)
GI50 (NCI-H226): > 100 µM (inactive)
GI50 (NCI-H522): > 100 µM (inactive)
GI50 (NCI/ADR-RES): > 100 µM (inactive)
GI50 (OVCAR-8): > 100 µM (inactive)
GI50 (RPMI-8226): > 100 µM (inactive)
GI50 (RXF 393): 43.1 µM (inactive)
GI50 (SNB-75): 40.3 µM (inactive)
GI50 (U-251): > 100 µM (inactive)
GI50 (UACC-257): > 100 µM (inactive)
GI50 (UACC-62): > 100 µM (inactive)

CCOC(=O)c1nc[nH]c1/N=N/N(C)N
GI50 (A498): 40.6 µM (inactive)
GI50 (ACHN): > 100 µM (inactive)
GI50 (BT-549): > 100 µM (inactive)
GI50 (CAKI-1): 15.4 µM (inactive)
GI50 (DU-145): > 100 µM (inactive)
GI50 (EKVX): > 100 µM (inactive)
GI50 (HT-29): 61.1 µM (inactive)
GI50 (IGROV-1): > 100 µM (inactive)
GI50 (KM12): 1.87 µM (inactive)
GI50 (MDA-MB-231): > 100 µM (inactive)
GI50 (NCI-H226): > 100 µM (inactive)
GI50 (NCI-H522): 22.4 µM (inactive)
GI50 (NCI/ADR-RES): > 100 µM (inactive)
GI50 (OVCAR-8): > 100 µM (inactive)
GI50 (RPMI-8226): 46.6 µM (inactive)
GI50 (RXF 393): > 100 µM (inactive)
GI50 (SNB-75): > 100 µM (inactive)
GI50 (U-251): 65 µM (inactive)
GI50 (UACC-257): > 100 µM (inactive)
GI50 (UACC-62): > 100 µM (inactive)

CCOC(=O)c1c2c(n(-c3ccc(C)cc3)c1C)-c1ccccc1C(=O)C2(C(=O)OCC)C(=O)OCC
GI50 (A498): 46.6 µM (inactive)
GI50 (ACHN): 44.3 µM (inactive)
GI50 (BT-549): 24.8 µM (inactive)
GI50 (CAKI-1): 39.9 µM (inactive)
GI50 (DU-145): 30.4 µM (inactive)
GI50 (EKVX): 32.4 µM (inactive)
GI50 (HT-29): 27.3 µM (inactive)
GI50 (IGROV-1): 30.3 µM (inactive)
GI50 (KM12): 38.5 µM (inactive)
GI50 (MDA-MB-231): 32.1 µM (inactive)
GI50 (NCI-H226): 55 µM (inactive)
GI50 (NCI-H522): 25.1 µM (inactive)
GI50 (NCI/ADR-RES): 33.4 µM (inactive)
GI50 (OVCAR-8): 29.2 µM (inactive)
GI50 (RPMI-8226): 14 µM (inactive)
GI50 (RXF 393): 26.5 µM (inactive)
GI50 (SNB-75): 28.6 µM (inactive)
GI50 (U-251): 70.1 µM (inactive)
GI50 (UACC-257): 33.8 µM (inactive)
GI50 (UACC-62): 27.3 µM (inactive)

O=C1/C(=C/c2ccc(O)cc2)CC/C1=C\c1ccc(O)cc1
GI50 (A498): > 33 µM (inactive)
GI50 (ACHN): 6.31 µM (inactive)
GI50 (BT-549): > 100 µM (inactive)
GI50 (CAKI-1): 34.5 µM (inactive)
GI50 (DU-145): > 100 µM (inactive)
GI50 (EKVX): 99.8 µM (inactive)
GI50 (HT-29): > 100 µM (inactive)
GI50 (IGROV-1): > 100 µM (inactive)
GI50 (KM12): > 100 µM (inactive)
GI50 (MDA-MB-231): > 100 µM (inactive)
GI50 (NCI-H226): > 100 µM (inactive)
GI50 (NCI-H522): 49.4 µM (inactive)
GI50 (NCI/ADR-RES): 28.3 µM (inactive)
GI50 (OVCAR-8): > 81.5 µM (inactive)
GI50 (RPMI-8226): 49.3 µM (inactive)
GI50 (RXF 393): > 100 µM (inactive)
GI50 (SNB-75): > 100 µM (inactive)
GI50 (U-251): 53.1 µM (inactive)
GI50 (UACC-257): > 100 µM (inactive)
GI50 (UACC-62): 13.3 µM (inactive)
